Consider twelve compounds from ChEMBL document CHEMBL2046382, “Synthesis, biological evaluation of 5-carbomethoxymethyl-7-hydroxy-2-pentylchromone, 5-carboethoxymethyl-4',7-dihydroxyflavone and their analogues” (Bioorg Med Chem Lett, 2012).

The test system of data set [1] is Staphylococcus aureus. Kind of data set: Antibacterial activity against Staphylococcus aureus MTCC 96 at 80 ug/ml by modified microtiter broth dilution method. The format is functional, organism-based.
The test system of data set [2] is Pseudomonas aeruginosa. Kind of data set: Antibacterial activity against Pseudomonas aeruginosa MTCC 2453 by modified microtiter broth dilution method. The format is functional. In general terms: In broth dilution the organism is exposed to a series of concentrations in liquid medium.
The test system of data set [3] is Radical scavenging activity. Kind of data set: Antioxidant activity assessed as DPPH free radical scavenging activity. The format is functional.
Data set [4] relates to Bacillus subtilis. Kind of data set: Antibacterial activity against Bacillus subtilis MTCC 121 at 80 ug/ml by modified microtiter broth dilution method. The format is functional, organism-based.
A short description of data set [5]: Antioxidant activity in erythrocytes assessed as inhibition of hemolysis. Particulars: erythrocyte. In kind it is functional, cell-based.
Data set [6] relates to Raoultella planticola. Kind of data set: Antibacterial activity against Klebsiella planticola MTCC 530 at 80 ug/ml by modified microtiter broth dilution method. In kind it is functional, organism-based.
Data set [7] relates to Staphylococcus aureus. Kind of data set: Antibacterial activity against Staphylococcus aureus MTCC 2940 by modified microtiter broth dilution method. In kind it is functional.
Data set [8] is described as follows: Antioxidant activity of the compound assessed as inhibition of lipid peroxidation. In kind it is functional.
Data set [9] deals with Escherichia coli. Kind of data set: Antibacterial activity against Escherichia coli MTCC 739 at 80 ug/ml by modified microtiter broth dilution method. In kind it is functional, organism-based.
Data set [10] is described as follows: Antioxidant activity assessed as superoxide radical scavenging activity. In kind it is functional.
Data set [11] deals with Micrococcus luteus. Kind of data set: Antibacterial activity against Micrococcus luteus MTCC 2470 at 80 ug/ml by modified microtiter broth dilution method. The format is functional, organism-based.
In data set [12] the test system is Micrococcus luteus. Kind of data set: Antibacterial activity against Micrococcus luteus MTCC 2470 by modified microtiter broth dilution method. In kind it is functional.
A short description of data set [13]: Antioxidant activity assessed as superoxide radical scavenging activity after 48 hrs. In kind it is functional.
Data set [14] relates to Escherichia coli. Kind of data set: Antibacterial activity against Escherichia coli MTCC 739 by modified microtiter broth dilution method. The format is functional.
Data set [15] is described as follows: Antioxidant activity of the compound assessed as inhibition of lipid peroxidation after 48 hrs. The format is functional.
The nature of data set [16]: Chemical stability of the compound in antioxidant reaction. In kind it is physicochemical.
For data set [17], the system named is Staphylococcus aureus. Kind of data set: Antibacterial activity against Staphylococcus aureus MTCC 2940 at 80 ug/ml by modified microtiter broth dilution method. In kind it is functional, organism-based.
For a further data set, the system named is Erythrocyte. Kind of data set: Antioxidant activity in erythrocytes assessed as inhibition of hemolysis after 48 hrs. In kind it is functional, cell-based.
Data set [18] concerns Radical scavenging activity. Kind of data set: Antioxidant activity assessed as DPPH free radical scavenging activity after 48 hrs. In kind it is functional. Background: DPPH is a stable violet radical that fades when it is reduced.
The test system of data set [19] is Staphylococcus aureus. Kind of data set: Antibacterial activity against Staphylococcus aureus MTCC 96 by modified microtiter broth dilution method. In kind it is functional.
Data set [20] deals with Bacillus subtilis. Kind of data set: Antibacterial activity against Bacillus subtilis MTCC 121 by modified microtiter broth dilution method. The format is functional.
Data set [21] has as its system Raoultella planticola. Kind of data set: Antibacterial activity against Klebsiella planticola MTCC 530 by modified microtiter broth dilution method. In kind it is functional.
The test system of data set [22] is Pseudomonas aeruginosa. Kind of data set: Antibacterial activity against Pseudomonas aeruginosa MTCC 2453 at 80 ug/ml by modified microtiter broth dilution method. In kind it is functional, organism-based.

Molecules are shown by their SMILES. In brackets after ≈: the same amount, converted by molar mass. Activity calls are given as the source filed them. The calls are words filed in the database; no cut-off is given here.

For `COC(=O)Cc1cc(O)cc2oc(-c3ccc(O)c(O)c3)cc(=O)c12`, the result in the data set with Staphylococcus aureus [1], with Bacillus subtilis [4], with Raoultella planticola [6], with Escherichia coli [9] and with Micrococcus luteus [11] was inactive. Further, the MIC against Pseudomonas aeruginosa [2] and with Staphylococcus aureus [7] was 9 µg/mL (≈ 26.3 µM) in each case. Further, the EC50 (commonly the concentration at which the effect is half-maximal) is 49.99 µg/mL (≈ 146 µM) in data set [3], 127.98 µg/mL (≈ 374 µM) in data set [5], 142 µg/mL (≈ 415 µM) in data set [8] and 44.08 µg/mL (≈ 129 µM) in data set [10].

Consider `COC(=O)Cc1cc(O)cc2oc(-c3cc(O)ccc3O)cc(=O)c12`, for which the MIC (in general, the lowest concentration found to suppress growth) against Micrococcus luteus [12] turned out to be 37 µg/mL (≈ 108 µM); against Pseudomonas aeruginosa [2], 18 µg/mL (≈ 52.6 µM); against Escherichia coli [14], 18 µg/mL (≈ 52.6 µM). In addition, the result (in the data set with Staphylococcus aureus [1]; with Bacillus subtilis [4]; in data set [13]; in the data set with Raoultella planticola [6]; in [15]; with Staphylococcus aureus [17]) was inactive. The outcome (with Erythrocyte; in data set [18]) was inactive. Also, the EC50 in data set [3] is 119.11 µg/mL (≈ 348 µM); in data set [5], 209.56 µg/mL (≈ 612 µM); in data set [8], 221.12 µg/mL (≈ 646 µM); in [10], 106.22 µg/mL (≈ 310 µM). Besides, the Stability result in data set [16] is reported as “Unstable”.

For the compound `COC(=O)Cc1cc(O)cc2oc(-c3ccc(Cl)cc3)cc(=O)c12`, the figures for the MIC against Pseudomonas aeruginosa [2], against Staphylococcus aureus [7] and with Staphylococcus aureus [19] were 37 µg/mL (≈ 107 µM), 75 µg/mL (≈ 218 µM) and 37 µg/mL (≈ 107 µM), respectively. Also, the outcome (with Bacillus subtilis [4]; in [13]; in the data set on Raoultella planticola [6]; in data set [15]; in the data set with Escherichia coli [9]; with Micrococcus luteus [11]) was inactive. For the same compound, the outcome (in the data set on Erythrocyte; in [18]) was inactive. Also, the Stability entry in data set [16] is reported as “Unstable”.

`COC(=O)Cc1cc(O)cc2oc(-c3ccc([N+](=O)[O-])cc3)cc(=O)c12`: the MIC in the data set with Micrococcus luteus [12] was 18 µg/mL (≈ 50.7 µM); with Pseudomonas aeruginosa [2] it was 9 µg/mL (≈ 25.3 µM); against Escherichia coli [14], 37 µg/mL (≈ 104 µM); against Staphylococcus aureus [7] it was 18 µg/mL (≈ 50.7 µM); against Bacillus subtilis [20], 18 µg/mL (≈ 50.7 µM); in the data set on Raoultella planticola [21], 9 µg/mL (≈ 25.3 µM). Besides, the outcome (in the data set on Staphylococcus aureus [1]; with Bacillus subtilis [4]; in data set [13]; in [15]; with Erythrocyte; in data set [18]) was inactive. Further, the Stability result in [16] is given as “Unstable”.

`COC(=O)Cc1cc(O)cc2oc(-c3ccc(O)cc3O)cc(=O)c12`: the outcome in the data set on Staphylococcus aureus [1], with Bacillus subtilis [4], in the data set on Raoultella planticola [6], with Escherichia coli [9], in the data set on Staphylococcus aureus [17] and with Micrococcus luteus [11] was inactive. Further, in the data set on Pseudomonas aeruginosa [2], 9 µg/mL (≈ 26.3 µM) was the least that counted as inhibitory (MIC). Also, the EC50 in data set [3] is 60 µg/mL (≈ 175 µM); in data set [5], “Not Active”; in data set [8] it was “Not Active”; in [10] it was 60.9 µg/mL (≈ 178 µM).

Turning to `COC(=O)Cc1cc(O)cc2occc(=O)c12`, the result (in the data set on Staphylococcus aureus [1]; in data set [13]; with Raoultella planticola [6]; in [15]; in the data set with Pseudomonas aeruginosa [22]; with Escherichia coli [9]) was inactive. Also, the outcome (with Staphylococcus aureus [17]; in the data set with Micrococcus luteus [11]; in the data set on Erythrocyte; in data set [18]) was inactive. Further, in [16], the Stability result was “Unstable”.

As to `COC(=O)Cc1cc(O)cc2oc(-c3cccc(OC)c3Cl)cc(=O)c12`, the result (in the data set on Bacillus subtilis [4]; in data set [13]; in the data set on Raoultella planticola [6]; in data set [15]; in the data set on Pseudomonas aeruginosa [22]; with Escherichia coli [9]) was inactive. Also, the result (with Staphylococcus aureus [17]; in the data set on Micrococcus luteus [11]; in the data set on Erythrocyte; in [18]) was inactive. Moreover, the Stability entry in data set [16] is recorded as “Unstable”. In the data set with Staphylococcus aureus [19], this compound registered an MIC of 9 µg/mL (≈ 24 µM).

As to `O=C1O[C@H]([C@@H](O)CO)C(O)=C1O` [ASCORBIC ACID], the EC50 in [3] came out at 40.28 µg/mL (≈ 229 µM); in data set [5] it was 119.87 µg/mL (≈ 681 µM); in data set [8], 139.97 µg/mL (≈ 795 µM); in data set [10] it was 21.01 µg/mL (≈ 119 µM).

In the case of `CCCCCc1cc(=O)c2c(CC(=O)OC)cc(O)cc2o1` [PESTALOTIOPSONE F], the outcome (with Staphylococcus aureus [1]; in the data set on Bacillus subtilis [4]; in data set [13]; in [15]; in the data set with Pseudomonas aeruginosa [22]; with Escherichia coli [9]) was inactive. Besides, the outcome (with Micrococcus luteus [11]; in the data set with Erythrocyte; in data set [18]) was inactive. Besides, the MIC in the data set with Staphylococcus aureus [7] and in the data set on Raoultella planticola [21] was 9 µg/mL (≈ 29.6 µM) throughout. For the same compound, in data set [16], the Stability entry is listed as “Unstable”.

With `COC(=O)Cc1cc(O)cc2oc(-c3cc(O)c(O)c(O)c3)cc(=O)c12`, the result with Staphylococcus aureus [1], with Bacillus subtilis [4], in the data set on Pseudomonas aeruginosa [22], in the data set on Escherichia coli [9] and with Micrococcus luteus [11] was inactive. For the same compound, the EC50 came to 55.08 µg/mL (≈ 154 µM) in data set [3], 139.76 µg/mL (≈ 390 µM) in data set [5], 156.21 µg/mL (≈ 436 µM) in data set [8] and 50.09 µg/mL (≈ 140 µM) in [10]. Besides, the minimum inhibitory concentration (MIC) against Staphylococcus aureus [7] and against Raoultella planticola [21] was 9 µg/mL (≈ 25.1 µM) in each case.

Consider `COC(=O)Cc1cc(O)cc2oc(-c3cc(OC)c(OC)c(OC)c3)cc(=O)c12`, for which the MIC came out at 4 µg/mL (≈ 9.99 µM) against Micrococcus luteus [12]; 18 µg/mL (≈ 45 µM) against Pseudomonas aeruginosa [2]; 18 µg/mL (≈ 45 µM) against Escherichia coli [14]; 18 µg/mL (≈ 45 µM) against Staphylococcus aureus [7]; 18 µg/mL (≈ 45 µM) in the data set with Staphylococcus aureus [19]; 9 µg/mL (≈ 22.5 µM) against Bacillus subtilis [20]. This compound also came in with an MIC against Raoultella planticola [21] of 9 µg/mL (≈ 22.5 µM). The outcome (in data set [13]; in data set [15]; with Erythrocyte; in [18]) was inactive. For the same compound, the Stability result in data set [16] is recorded as “Unstable”.

Take `COC(=O)Cc1cc(O)cc2oc(-c3ccccc3)cc(=O)c12`: the outcome (in the data set with Staphylococcus aureus [1]; in the data set with Bacillus subtilis [4]; in [13]; with Raoultella planticola [6]; in data set [15]; in the data set on Pseudomonas aeruginosa [22]) was inactive. For the same compound, the outcome (with Escherichia coli [9]; in the data set on Micrococcus luteus [11]; in the data set on Erythrocyte; in data set [18]) was inactive. For the same compound, in the data set with Staphylococcus aureus [7], the MIC stood at 9 µg/mL (≈ 29 µM). Also, the Stability result in [16] is given as “Unstable”.
